In patent US20260102387A1, “IMMUNOSUPPRESSIVE COMPOUNDS” (UNIVERSITÄT BASEL, priority 2022, published 2026):
Read-outs that look alike come from different tables or passages of the source.

Tests used:
[1] = test system: BRD2, BRD3 and BRD4 proteins; details: reported TPP data; cited from earlier work
[2] = test system: coronin 1 promoter; assay: EC50 analysis for coronin 1 promoter driven GFP inhibition by flow cytometry in RBL cells; type: cell-based; details: RBL, RBL cells, 48-65 h, flow cytometry
Protocol: RBL cells that had been incubated with the indicated calcium channel blockers (amlodipine (3.125 μM) and verapamil (8 μM) concentrations for 48 h were analyzed by flow cytometry for any alteration in coronin 1 promoter driven GFP fluorescence. The results reveal no effect of calcium channel blockers on coronin 1 promoter activity (FIG. 4).
(§1) RBL cells expressing GFP under coronin 1 promoter and optionally with RBL cells expressing RFP under CMV promoter were mixed in equal numbers and incubated with the compounds at indicated concentrations for 48-65 h and analyzed by flow cytometry for alteration in coronin 1 promoter (GFP fluorescence), CMV promoter (RFP fluorescence) values. In addition, the cells were labelled with live-dead marker for assessing cell viability status by flow cytometry. Cycloheximide (CHX) serves as positive control and DMSO serves as negative controls. Effective Concentration (EC50) values for coronin 1 promoter inhibition via GFP fluorescence analysis, non-specific promoter inhibition via CMV promoter driven-RFP fluorescence analysis and cell viability via live/dead staining as a measure for toxicity in flow cytometry for compounds (10-22 and 50a-65a) are shown in Table 6 and Table 7. Based on the EC50 analysis of the inhibition of coronin 1 promoter driven GFP fluorescence the (4S,7R)-configurated eutomers were identified (Structures FIG. 9A-C). This is exemplified for compounds containing two stereocenters by eutomers 11c and 13a. […] Subsequent EC50 evaluations (Table 7) were performed with compound 13a as standard for relative potency normalized to a value of 1.00 (relative potency calculated as [EC50 GFP inhibition 13a]/[EC50 GFP inhibition compound of interest]).

[3] = test system: CMV promoter; assay: EC50 analysis for CMV promoter driven RFP inhibition (non-specific activity) by flow cytometry in RBL cells; type: cell-based, cytomegalovirus; details: 48-65 h, read-out: EC50 RFP alteration
Protocol: as §1

[4] = test system: RBL cells; assay: Cell viability by live-dead staining (cytotoxicity), flow cytometry; type: cell-based, Rat; details: Rattus norvegicus, RBL, cell viability via live/dead staining, 48-65 h, read-out: EC50 Toxicity
Protocol: as §1

[5] = test system: coronin 1 promoter; assay: Fluorescence-based screening assay: coronin 1 promoter driven GFP in RBL cells (microplate reader / microscopy); type: cell-based; details: RBL, 48 h, read-out: GFP values (%)
Protocol: The murine coronin 1 promoter sequences of SEQ ID NO: 1-6 were each cloned into a plasmid lacking a promoter (promoterless) but containing a destabilized Green Fluorescence Protein (GFP) cassette. Rat Basophil Leukemia (RBL) cells were transfected with the plasmids, stable GFP expressing cells were enriched, incubated with various compounds and assessed for coronin 1 promoter inhibition by assessing green fluorescence values (FIG. 2).
The plasmids were independently transfected into immune cells (Rat basophil Leukemia, RBL cells) to generate green and red fluorescent RBL cells that were subsequently enriched by means of flow cytometry. These cells were then mixed in equal ratio (1:1) and incubated in a 96 well plate at 100,000 cells/well in a volume of 200 μl of phenol red free RPMI supplemented with 8% fetal calf serum, L-glutamate and antibiotics (penicillin, […]) from available chemical libraries. At defined time points (8 h, 24 h and 48 h), the GFP and RFP fluorescence was measured using a 96 well microplate reader (Synergy, BioTek Instruments). […] Selected compounds show different levels of modulation of coronin 1 promoter driven GFP and CMV promoter driven RFP fluorescence. GFP and RFP fluorescence were analyzed with a microplate reader upon incubation with the top coronin 1 promoter inhibiting compounds. Shown are percentage of GFP reduction (left column) and percentage of RFP reduction (right column) for the compounds at 5 μg/ml concentration at 48 h. Cycloheximide (CHX) serves as positive control whereas media and DMSO serve as negative controls. […] Cells were imaged using a fluorescence microscope to validate fluorescence inhibition (FIG. 3A) and as well assess morphology and viability (in addition to GFP down regulation confirmation). In addition, quantitative Polymerase Chain Reaction (qPCR) for coronin 1 mRNA transcripts reveal reduction with compound 11 (FIG. 3B). The primers used for the qPCR on RBL cells are listed below as follows;

[6] = test system: early cytomegalovirus promoter; assay: Screening assay control: CMV promoter driven RFP in RBL cells (microplate reader); type: cell-based; details: 48 h
Protocol: As an unrelated promoter, the early cytomegaloviral promoter element was cloned into a promoterless Red Fluorescence Protein (RFP) expression plasmid. Rat Basophil Leukemia (RBL) cells were transfected with the plasmid, stable RFP expressing cells enriched, incubated with various compounds and were assessed for red fluorescence values. Analyzing the inhibition of an unrelated promoter (in this case, early cytomegalovirus promoter) that drove Red Fluorescence Protein (RFP) expression assessed non-specificity of the compound under analysis.
The plasmids were independently transfected into immune cells (Rat basophil Leukemia, RBL cells) to generate green and red fluorescent RBL cells that were subsequently enriched by means of flow cytometry. These cells were then mixed in equal ratio (1:1) and incubated in a 96 well plate at 100,000 cells/well in a volume of 200 μl of phenol red free RPMI supplemented with 8% fetal calf serum, L-glutamate and antibiotics (penicillin, streptomycin) and various compounds (3 and 5 μg/ml concentrations) from available chemical libraries. At defined time points (8 h, 24 h and 48 h), the GFP and RFP fluorescence was measured using a 96 well microplate reader (Synergy, BioTek Instruments). […] Selected compounds show different levels of modulation of coronin 1 promoter driven GFP and CMV promoter driven RFP fluorescence. GFP and RFP fluorescence were analyzed with a microplate reader upon incubation with the top coronin 1 promoter inhibiting compounds. Shown are percentage of GFP reduction (left column) and percentage of RFP reduction (right column) for the compounds at 5 μg/ml concentration at 48 h. Cycloheximide (CHX) serves as positive control whereas media and DMSO serve as negative controls. […] Cells were imaged using a fluorescence microscope to validate fluorescence inhibition (FIG. 3A) and as well assess morphology and viability (in addition to GFP down regulation confirmation). In addition, quantitative Polymerase Chain Reaction (qPCR) for coronin 1 mRNA transcripts reveal reduction with compound 11 (FIG. 3B). The primers used for the qPCR on RBL cells are listed below as follows;

[7] = 5 μg/ml, microplate reader, DMSO = 100
[8] = 5 μg/ml, microplate reader, DMSO = 100, read-out: RFP values (%)

## CC(=O)Nc1c(F)cc(C(=O)N[C@H]2CC[C@H](O)CC2)cc1O[C@@H](C)c1ccccc1 [IBET-BD2]
[1]
  thermal stabilization of BRD2, BRD3 and BRD4 proteins: thermal stabilization

## Cc1sc2c(c1C)C(c1ccc(Cl)cc1)=N[C@@H](CC(=O)OC(C)(C)C)c1nnc(C)n1-2 [JQ1]
[1]
  thermal stabilization of BRD2, BRD3 and BRD4 proteins: thermal stabilization

## COc1ccccc1C1CC(=O)C2=C(C1)NC(C)=C(C(=O)OCC1CCOCC1)C2c1cccc(O)c1 (stereo not shown) [compound 18, (tetrahydro-2H-pyran-4-yl)methyl 4-(3-hydroxyphenyl)-7-(2-methoxyphenyl)-2-methyl-5-oxo-1,4,5,6,7,8-hexahydroquinoline-3-carboxylate]
[2]
  EC50: 200 nM
[3]
  EC50: > 2500 nM
[4]
  EC50: > 2500 nM

## COc1ccccc1C1CC(=O)C2=C(C1)NC(C)=C(C(=O)OC1CCOCC1)C2c1cccc(O)c1 (stereo not shown) [compound 13, tetrahydro-2H-pyran-4-yl-4-(3-hydroxyphenyl)-7-(2-methoxyphenyl)-2-methyl-5-oxo-1,4,5,6,7,8-hexahydro-3-quinolinecarboxylate]
[2]
  EC50: 120 nM
[3]
  EC50: > 2500 nM
[4]
  EC50: > 2500 nM

## C[C@@H]1C[C@@H]([C@H](O)CC2CC(=O)NC(=O)C2)C(=O)[C@@H](C)C1 [CHX, cycloheximide, reference compound]
[5]
  activity at 5 µg/mL: 21%
[6]; read-out: RFP values (%)
  activity at 5 µg/mL: 40%

## COC(=O)C1=C(C)NC2=C(C(=O)CC(c3cccs3)C2)C1c1cccc(O)c1 (stereo not shown) [Comp. 5, methyl-4-(3-hydroxyphenyl)-2-methyl-5-oxo-7-(2-thienyl)-1,4,5,6,7,8-hexahydro-3-quinolinecarboxylate]
[5]; [7]
  activity at 5 µg/mL: 74%
[6]; [8]
  activity at 5 µg/mL: 108%

## COc1cc2c(cc1-c1c(C)noc1C)ncc1[nH]c(=O)n([C@H](C)c3ccccn3)c12 [IBET-151]
[1]
  thermal stabilization of BRD2, BRD3 and BRD4 proteins: thermal stabilization

## COc1cc(OC)c2c(=O)[nH]c(-c3cc(C)c(OCCO)c(C)c3)nc2c1 [RVX-208]
[1]
  thermal stabilization of BRD2, BRD3 and BRD4 proteins: thermal stabilization

## COC(=O)C1=C(C)NC2=C(C(=O)CC(c3ccc(Cl)cc3)C2)C1c1cccc(O)c1 (stereo not shown) [Comp. 22, methyl 7-(4-chlorophenyl)-4-(3-hydroxyphenyl)-2-methyl-5-oxo-1,4,5,6,7,8-hexahydroquinoline-3-carboxylate]
[5]; [7]
  activity at 5 µg/mL: 55%
[6]; [8]
  activity at 5 µg/mL: 70%

## COc1ccccc1C1CC(=O)C2=C(C1)NC(C)=C(C(=O)OCC1CCCO1)C2c1cccs1 (stereo not shown) [Comp. 1, tetrahydro-2-furanylmethyl-7-(2-methoxyphenyl)-2-methyl-5-oxo-4-(2-thienyl)-1,4,5,6,7,8-hexahydro-3-quinolinecarboxylate]
[5]; [7]
  activity at 5 µg/mL: 35%
[6]; [8]
  activity at 5 µg/mL: 66%

## COc1ccccc1C1CC(=O)C2=C(C1)NC(C)=C(C(=O)OCC1CCCO1)C2c1ccccc1F (stereo not shown) [Comp. 10, tetrahydro-2-furanylmethyl-4-(2-fluorophenyl)-7-(2-methoxyphenyl)-2-methyl-5-oxo-1,4,5,6,7,8-hexahydro-3-quinolinecarboxylate]
[5]; [7]
  activity at 5 µg/mL: 48%
[6]; [8]
  activity at 5 µg/mL: 110%
[2]
  EC50: 800 nM
[3]
  EC50: 1000 nM
[4]
  EC50: > 7500 nM

## COc1ccccc1C1CC(=O)C2=C(C1)NC(C)=C(C(=O)OCC1CCCO1)C2c1cccc(O)c1 (stereo not shown) [Comp. 12, tetrahydro-2-furanylmethyl-4-(3-hydroxyphenyl)-7-(2-methoxyphenyl)-2-methyl-5-oxo-1,4,5,6,7,8-hexahydro-3-quinolinecarboxylate]
[5]; [7]
  activity at 5 µg/mL: 46%
[6]; [8]
  activity at 5 µg/mL: 153%
[2]
  EC50: 340 nM
[3]
  EC50: > 1000 nM
[4]
  EC50: > 3000 nM

## COC(=O)C1=C(C)NC2=C(C(=O)CC(c3ccccc3)C2)C1c1cccc(O)c1 (stereo not shown) [Comp. 4, methyl 4-(3-hydroxyphenyl)-2-methyl-5-oxo-7-phenyl-1,4,5,6,7,8-hexahydroquinoline-3-carboxylate]
[5]; [7]
  activity at 5 µg/mL: 60%
[6]; [8]
  activity at 5 µg/mL: 85%

## CCSCCOC(=O)C1=C(C)NC2=C(C(=O)CC(c3ccccc3OC)C2)C1c1ccsc1 (stereo not shown) [Comp. 3, 2-(ethylthio)ethyl-7-(2-methoxyphenyl)-2-methyl-5-oxo-4-(3-thienyl)-1,4,5,6,7,8-hexahydro-3-quinolinecarboxylate]
[5]; [7]
  activity at 5 µg/mL: 63%
[6]; [8]
  activity at 5 µg/mL: 80%

## COC(=O)C1=C(C)NC2=C(C(=O)CC(c3ccc(OC)cc3)C2)C1c1cccc(O)c1 (stereo not shown) [Comp. 8, methyl-4-(3-hydroxyphenyl)-7-(4-methoxyphenyl)-2-methyl-5-oxo-1,4,5,6,7,8-hexahydro-3-quinolinecarboxylate]
[5]; [7]
  activity at 5 µg/mL: 87%
[6]; [8]
  activity at 5 µg/mL: 97%
